Measured values from patent EP0083750A1, “Antimycotic azolyl butanols” (BAYER AG, priority 1981, dated 1983).
≈ marks a conversion by molar mass, not a printed value. Where a name gives a salt, the structure may show the parent alone.

Legend:
Assay type in all cases: cell-based
Aspergillus fumig. = assay: Antimycotic in-vitro activity, serial dilution test (MIC); details: 96 h, Reihenverdünnungstest, 5 x 10^4 Keimen/ml Substrat, Sabourand's milieu d'epreuve, 20°C, 96 Stunden, read-out: MHK-Werte in γ/ml Nährmedium, Aspergillus fumig.
Procedure: (§1) Versuchsbeschreibung: • Die in-vitro-Prüfungen wurden im Reihenverdünnungstest mit Keiminokula von durchschnittlich 5 x 10^4 Keimen/ml Substrat durchgeführt. Als Nährmedium dienten • a) für Dermatophyten und Schimmelpilze: Sabourand's milieu d'epreuve • b) für Hefen: • Fleischextrakt-Traubenzucker-Bouillon.
(§2) Die Bebrütungstemperatur betrug 20°C, die Bebrütungsdauer lag bei 24 bis 96 Stunden bei Hefen und 96 Stunden bei Dermatophyten und Schimmelpilzen.

Candida albicans = assay: as above; details: Reihenverdünnungstest, 5 x 10^4 Keimen/ml Substrat, Fleischextrakt-Traubenzucker-Bouillon, 20°C, 24 bis 96 Stunden, read-out: MHK-Werte in γ/ml Nährmedium, Candida albicans
Procedure: as §1, §2

Microsporum canis = assay: as above; details: 96 h, Reihenverdünnungstest, 5 x 10^4 Keimen/ml Substrat, Sabourand's milieu d'epreuve, 20°C, 96 Stunden, read-out: MHK-Werte in γ/ml Nährmedium, Microsporum canis
Procedure: as §1, §2

Torulopsis glabrata = assay: as above; details: Nakaseomyces glabratus; Reihenverdünnungstest, 5 x 10^4 Keimen/ml Substrat, Fleischextrakt-Traubenzucker-Bouillon, 20°C, 24 bis 96 Stunden; read-out: MHK-Werte in γ/ml Nährmedium, Torulopsis glabrata
Procedure: as §1, §2

Trichophyton mentagr. = assay: as above; details: 96 h, Reihenverdünnungstest, 5 x 10^4 Keimen/ml Substrat, Sabourand's milieu d'epreuve, 20°C, 96 Stunden, read-out: MHK-Werte in γ/ml Nährmedium, Trichophyton mentagr.
Procedure: as §1, §2

[1] = system: Dermatophyten, Schimmelpilze, Hefen; assay: Antimycotic in-vitro activity, serial dilution test, overall comparison with prior art; details: in-vitro Reihenverdünnungstest
Procedure: as §1, §2

SMILES	MIC (Aspergillus fumig.) [mg/L]	MIC (Candida albicans) [mg/L]	MIC (Microsporum canis) [mg/L]	MIC (Torulopsis glabrata) [mg/L]	MIC (Trichophyton mentagr.) [mg/L]	antimykotische Wirkung im Vergleich zu den bekannten Verbindungen (A) und (B) [1]
CCOC(=O)c1ccc(OC(C)(C)C(O)C(Cc2ccc(Cl)cc2Cl)n2cncn2)cc1 (centres unmarked) [Beispiel 64]	64 (≈ 134 µM)	< 1	2 (≈ 4.18 µM)	64 (≈ 134 µM)	4 (≈ 8.36 µM)	bessere antimykotische Wirkung
C=CCC(C(O)C(C)(C)Oc1ccc(Cl)cc1Cl)n1ccnc1 (centres unmarked) [Beispiel 66]	16 (≈ 45 µM)	< 1	8 (≈ 22.5 µM)	4 (≈ 11.3 µM)	4 (≈ 11.3 µM)	bessere antimykotische Wirkung
CCCCC(C(O)C(C)(C)CSc1ccc(Cl)cc1)n1cncn1 (centres unmarked) [Beispiel 41]	> 64	< 1	< 1	2 (≈ 5.44 µM)	< 1	bessere antimykotische Wirkung
CC(C)(Cc1ccccc1)C(O)C(Cc1ccc(Cl)cc1Cl)n1cncn1 (centres unmarked) [Beispiel 83]	32 (≈ 79.1 µM)	< 1	8 (≈ 19.8 µM)	4 (≈ 9.89 µM)	< 1	bessere antimykotische Wirkung
CCCCC(C(O)C(C)(C)Cc1ccc(Cl)cc1Cl)n1cncn1 (centres unmarked) [Beispiel 81]	< 1	2 (≈ 5.4 µM)	2 (≈ 5.4 µM)	8 (≈ 21.6 µM)	< 1	bessere antimykotische Wirkung
C=CCC(C(O)C(C)(C)Oc1ccc(Cl)cc1Cl)n1cncn1 (centres unmarked) [Beispiel 53]	8 (≈ 22.5 µM)	4 (≈ 11.2 µM)	2 (≈ 5.61 µM)	32 (≈ 89.8 µM)	2 (≈ 5.61 µM)	bessere antimykotische Wirkung
CC(C)(Oc1ccc(Cl)cc1Cl)C(O)C(Cc1ccc(Cl)cc1Cl)n1cncn1 (centres unmarked) [Beispiel 25]	> 64	> 64	8 (≈ 16.8 µM)	64 (≈ 135 µM)	< 1	bessere antimykotische Wirkung
CC(C)(CSc1ccc(Cl)cc1)C(O)Cn1ccnc1 (centres unmarked) [Beispiel 3, 4-(4-Chlorphenylmercapto)-3,3-dimethyl-1-(imidazol-1-yl)-butan-2-ol]	16 (≈ 51.5 µM)	2 (≈ 6.43 µM)	2 (≈ 6.43 µM)	2 (≈ 6.43 µM)	8 (≈ 25.7 µM)	bessere antimykotische Wirkung
CC(C)(COc1ccc(Br)cc1)C(O)C(CC1CCCCC1)n1cncn1 (centres unmarked) [Beispiel 35]	< 1	32 (≈ 73.3 µM)	8 (≈ 18.3 µM)	< 1	< 1	bessere antimykotische Wirkung
CCOCC(C)(C)C(O)C(Cc1ccc(Cl)cc1Cl)n1cncn1 (centres unmarked) [Beispiel 85]	16 (≈ 43 µM)	< 1	8 (≈ 21.5 µM)	4 (≈ 10.7 µM)	4 (≈ 10.7 µM)	bessere antimykotische Wirkung
CCOCC(C)(C)C(O)C(Cc1ccc(Cl)c(Cl)c1)n1cncn1 (centres unmarked) [Beispiel 86]	8 (≈ 21.5 µM)	16 (≈ 43 µM)	4 (≈ 10.7 µM)	32 (≈ 86 µM)	2 (≈ 5.37 µM)	bessere antimykotische Wirkung
CC(C)(CSc1ccc(Cl)cc1)C(O)C(Cc1ccc(Cl)cc1)n1cncn1 (centres unmarked) [Beispiel 38]	64 (≈ 147 µM)	< 1	< 1	< 1	< 1	bessere antimykotische Wirkung
CC(C)(CSc1ccc(Cl)cc1)C(O)C(Cc1ccc(F)cc1)n1cncn1 (centres unmarked) [Beispiel 40]	< 1	< 1	< 1	4 (≈ 9.52 µM)	< 1	
C=CCCC(C(O)C(C)(C)COc1ccc(Cl)c(Cl)c1)n1cncn1 (centres unmarked) [Beispiel 95]	8 (≈ 20.8 µM)	2 (≈ 5.2 µM)	< 1	32 (≈ 83.3 µM)	< 1	bessere antimykotische Wirkung
CC(C)(COc1ccc(-c2ccccc2)cc1)C(O)Cn1ccnc1 (centres unmarked) [Beispiel 96]	64 (≈ 190 µM)	< 1	< 1	16 (≈ 47.6 µM)	< 1	bessere antimykotische Wirkung
CCOCC(C)(C)C(O)C(Cc1ccc(Cl)cc1)n1cncn1 (centres unmarked) [Beispiel 42]	8 (≈ 23.7 µM)	2 (≈ 5.92 µM)	8 (≈ 23.7 µM)	16 (≈ 47.4 µM)	< 1	bessere antimykotische Wirkung
COCC(C)(C)C(O)C(Cc1ccc(Cl)cc1Cl)n1cncn1 (centres unmarked) [Beispiel 7]	64 (≈ 179 µM)	8 (≈ 22.3 µM)	8 (≈ 22.3 µM)	16 (≈ 44.7 µM)	8 (≈ 22.3 µM)	bessere antimykotische Wirkung
Cc1ccc(CC(C(O)C(C)(C)COc2ccc(Cl)cc2)n2cncn2)cc1 (centres unmarked) [Beispiel 10]	4 (≈ 10 µM)	< 1	< 1	< 1	< 1	bessere antimykotische Wirkung
C=CCC(C(O)C(C)(C)Oc1ccc(Cl)cc1)n1cncn1 (centres unmarked) [Beispiel 56]	8 (≈ 24.9 µM)	4 (≈ 12.4 µM)	4 (≈ 12.4 µM)	8 (≈ 24.9 µM)	8 (≈ 24.9 µM)	bessere antimykotische Wirkung

Further lines, with some results ahead:

MIC (Aspergillus fumig.) [mg/L]	MIC (Candida albicans) [mg/L]	MIC (Microsporum canis) [mg/L]	MIC (Torulopsis glabrata) [mg/L]	MIC (Trichophyton mentagr.) [mg/L]	SMILES	antimykotische Wirkung im Vergleich zu den bekannten Verbindungen (A) und (B) [1]
16 (≈ 47.4 µM)	< 1	2 (≈ 5.92 µM)	4 (≈ 11.8 µM)	2 (≈ 5.92 µM)	CCCCC(C(O)C(C)(C)Oc1ccc(Cl)cc1)n1cncn1 (centres unmarked) [Beispiel 52]	bessere antimykotische Wirkung
64 (≈ 136 µM)	< 1	16 (≈ 34 µM)	< 1	< 1	CC(C)(CSc1ccc(Cl)cc1)C(O)C(Cc1ccc(Cl)cc1Cl)n1cncn1 (centres unmarked) [Beispiel 39]	bessere antimykotische Wirkung
8 (≈ 21.2 µM)	< 1	32 (≈ 84.7 µM)	4 (≈ 10.6 µM)	2 (≈ 5.29 µM)	CC(C)(Oc1ccc(Cl)cc1)C(O)C(CC1CCCCC1)n1cncn1 (centres unmarked) [Beispiel 31]	bessere antimykotische Wirkung
16 (≈ 54.1 µM)	32 (≈ 108 µM)	8 (≈ 27 µM)	> 64	16 (≈ 54.1 µM)	CC(C)(COc1ccc(Cl)cc1)C(O)Cn1cncn1 (centres unmarked) [Beispiel 4]	bessere antimykotische Wirkung
64 (≈ 159 µM)	4 (≈ 9.95 µM)	4 (≈ 9.95 µM)	2 (≈ 4.98 µM)	< 1	CC(C)(CSc1ccccc1)C(O)C(Cc1ccc(Cl)cc1)n1cncn1 (centres unmarked) [Beispiel 37]	bessere antimykotische Wirkung
> 64	< 1	4 (≈ 9.08 µM)	< 1	< 1	CC(C)(Oc1ccc(Cl)cc1)C(O)C(Cc1ccc(Cl)cc1Cl)n1cncn1 (centres unmarked) [Beispiel 27]	bessere antimykotische Wirkung
8 (≈ 21.5 µM)	< 1	< 1	4 (≈ 10.8 µM)	< 1	CC(C)(Oc1ccc(Cl)cc1)C(O)C(Cc1ccccc1)n1cncn1 (centres unmarked) [Beispiel 26]	bessere antimykotische Wirkung
8 (≈ 21.5 µM)	2 (≈ 5.37 µM)	2 (≈ 5.37 µM)	8 (≈ 21.5 µM)	< 1	CCCCC(C(O)C(C)(C)Oc1ccc(Cl)cc1Cl)n1cncn1 (centres unmarked) [Beispiel 51]	bessere antimykotische Wirkung
> 64	< 1	4 (≈ 9.08 µM)	4 (≈ 9.08 µM)	< 1	CC(C)(Oc1ccc(Cl)cc1)C(O)C(Cc1c(Cl)cccc1Cl)n1cncn1 (centres unmarked) [Beispiel 29]	bessere antimykotische Wirkung
64	16	64	64	2	CC(C)(Oc1ccc(Cl)cc1Cl)C(O)C(Cc1ccc(Cl)cc1)n1cncn1 (centres unmarked) [Beispiel 1, 5-(4-Chlorphenyl)-2-(2,4-dichlorphen-oxy)-2-methyl-4-(1,2,4-triazol-1-yl)-pentan-3-ol-hydrochlorid]	bessere antimykotische Wirkung
32 (≈ 103 µM)	8 (≈ 25.8 µM)	8 (≈ 25.8 µM)	32 (≈ 103 µM)	8 (≈ 25.8 µM)	CCC(C(O)C(C)(C)Oc1ccc(Cl)cc1)n1cncn1 (centres unmarked) [Beispiel 57]	bessere antimykotische Wirkung
